# In patent publication US20220273590A1, “COMPOUNDS FOR PREVENTION AND TREATMENT OF POST-OPERATIVE COGNITIVE DYSFUNCTION” (ABREXA PHARMACEUTICALS, INC., priority 2019, published 2022):
# Experiments:
# [1] = system: animal model of POCD; test: Novel Object and Novel Location Recognition (NOR/NLR) after abdominal surgery; assay type: in vivo, Wistar rats
# Procedure: Male Wistar rats (˜350 g) were randomly divided into 4 experimental groups; non-surgery; control abdominal surgery; surgery+acute J147 treatment (7 mg/rat by gavage, 4-5 hours before surgery); surgery+chronic J147 (500 mg/kg food, 1 week before surgery until the end of the study). Timed blood samples were collected. Days 9-11 post surgery, general behavior (Open field: OF) and cognitive performance (Novel Object/Novel Location Recognition: NOR/NLR; Morris Water Maze: MWM) were tested. Day 14, rats were sacrificed and blood and brain tissue were collected for further analyses. (Neuro)inflammation was examined by circulating cytokine levels and microglia activation in the brain. Abdominal surgery was performed as described previously by Hovens et al., 2014. Rats were anaesthetized using sevoflurane (±2.5% in air/O2=2/1) and received 0.01 mg/kg buprenorphine s.c. A heating blanket was used to preserve body temperature. An incision was made along the linea alba and the intestines were exteriorised. The upper mesenteric artery was isolated from surrounding tissue and clamped for a period of 30 minutes during which the intestines and surgical wound were covered with gauze soaked in saline, to prevent dehydration. During this time the animals were equipped with an indwelling jugular vein catheter to mimic insertion of a venous line in patients and allow timed blood sampling. For that, an incision was made at the subclavical region, the jugular vein was freed from surrounding tissue and a catheter was introduced and advanced into the vena cava, just above the right atrium. The other end of the catheter was guided subcutaneously to the head, and fixated on the skull with dental cement. The catheter was filled with PVP dissolved in heparin solution and closed with a plastic plug. After subsequent removal of the mesenteric artery clamp, the intestines were gently placed back and the abdominal wall and skin were closed separately by sutures. Clamping and reperfusion were visually verified by absence or presence of pulsation in the mesenteric artery distal to the clamp site. From induction to recovery, the procedure takes approximately 60 minutes. Post-operatively, the animals were allowed to recover and subsequently were housed individually. Rats were weighed daily at the last hour of the dark period. Maximal weight loss within the first 5 days post-surgery was taken as measure of experienced severity of surgery. Behavioral tests were performed in the dark (active) period of the rats. The lights were turned on at 9:00 p.m. and off at 9:00 a.m. […] General exploratory behavior and anxiety was tested in the Open field (OF) test; spatial learning, spatial memory and cognitive flexibility in the Morris Water Maze (MWM); spatial working memory in the novel location recognition test (NL); the novel object recognition test (NO) for working memory on object recognition. The Novel Object and Novel Location Recognition were tested in random order in one procedure to assess spatial short term memory and object memory. For this test, an open square box (50×50×40 cm) with 2 transparent and two grey walls was used. Objects used in the test were selected from a pilot study, investigating the preferences of rats for different objects. Rats were habituated to the box for 3 minutes, the day before the test. The test consisted of four phases, each phase took 3 minutes. Between each phase there was a break of 45 seconds in which the rat remained in the test box. The first phase was performed in an empty box, in the second phase two identical objects were placed in both corners at the nearest end of the box. In this phase, the rat was allowed to explore both objects. After this exploration phase either a novel object test or novel location test was performed. Before the start of each phase both objects were removed from the box and cleaned with 70% ethanol. […]
# [2] = system: animal model of POCD; test: Overall outcome in the animal model of POCD (abdominal surgery); assay type: in vivo, Wistar rats
# Procedure: In this study, the effects of J147 in an animal model of POCD were investigated. Male Wistar rats (˜350 g) were randomly divided into 4 experimental groups; non-surgery; control abdominal surgery; surgery+acute J147 treatment (7 mg/rat by gavage, 4-5 hours before surgery); surgery+chronic J147 (500 mg/kg food, 1 week before surgery until the end of the study). Timed blood samples were collected. Days 9-11 post surgery, general behavior (Open field: OF) and cognitive performance (Novel Object/Novel Location Recognition: NOR/NLR; Morris Water Maze: MWM) were tested. Day 14, rats were sacrificed and blood and brain tissue were collected for further analyses. (Neuro)inflammation was examined by circulating cytokine levels and microglia activation in the brain. Within each cohort rats (n=12 per cohort) were equally divided over four experimental groups, including non-surgery, control surgery, surgery+acute J147 and surgery+chronic J147. Half of the non-surgery and control surgery groups received vehicle gavage and served as control for acute treatment. One week before surgery, chronic treatment J147 treatment started and continued until the end of the experiment. […] The first week post-surgery, rats were weighed daily and food intake was measured. […]
structure (smiles),measurement,setting,value
COc1cccc(/C=N/N(C(=O)C(F)(F)F)c2ccc(C)cc2C)c1 [J147],NOR score (novel object preference),"[1]; Surgery + acute J147, n = 12, random = 50%",60 ± 5%
same,Baseline exploration (% time),"[1]; Surgery + acute J147, n = 15, mean ± SEM",23.6 ± 2.3 % time
same,NLR score (novel location preference),"[1]; Surgery + acute J147, n = 15, random = 50%, significantly different from random",61 ± 4%
same,NLR score (novel location preference),"[1]; Surgery + chronic J147, n = 11, random = 50%, significantly different from random",70 ± 6%
same,NOR score (novel object preference),"[1]; Surgery + chronic J147, n = 12, random = 50%, significantly different from random",58 ± 4%
same,Baseline exploration (% time),"[1]; Surgery + chronic J147, n = 15, mean ± SEM",16.8 ± 2.5 % time
same,difference between the groups in preference for the novel or relocated object,[1]; acute and chronic J147 versus control groups,No significant differences
same,NLR test performance versus random,[1]; both treated groups (acute and chronic J147),performed above random
same,NLR performance compared with other groups,[1]; chronically treated rats,performed best in NLR
same,"NOR, effect of treatment",[1]; chronically treated rats,not affected
same,impaired cognitive aspects after surgery,[2]; chronic J147 administration,capable of preventing all impaired cognitive aspects after surgery
same,"conditions after surgery (body weight loss, behavior in the OF)",[2]; chronic treatment,generally improved conditions after surgery
